Paper PMC6675780, “Monitoring activities of receptor tyrosine kinases using a universal adapter in genetically encoded split TEV assays” (Cellular and Molecular Life Sciences: CMLS, 2019)
Read-outs that look alike come from different tables or passages of the source.

Key:
PC12 cells = test: Constitutive Renilla luciferase readout to assess toxic effects; assay type: cell-based; settings: split TEV dose-response assays
Description: For split TEV recruitment assays in a dose–response format, the following amendments to the general protocol were made. For a dose–response assay, all cells on the plate were transfected with the same receptor-NTEV-tcs-GV and adapter-CTEV fusions, the Fluc reporter plasmid, 1 ng of a plasmid constitutively expressing Renilla luciferase driven by a thymidine kinase promoter, and the EYFPnuc expressing plasmid. Renilla luciferase was used to assess toxic effects when applying compounds. For dose-dependent stimulation testing activation, six wells per condition were stimulated using increasing concentrations of an agonist at a semi-logarithmic scale. For assays testing inhibition, cells were treated with increasing concentrations of an antagonist at a semi-logarithmic scale, followed 1 h later by the addition of an agonist at a constant concentration. […] Dose–response data were analysed using the R-based ‘drc’ package, as described before. Error bars are calculated as standard error of the mean (SEM). For ease of presentation and intuition, we have transformed conventionally used IC50 values into pIC50 values. These are calculated from IC50 values using the formula pIC50 = − log10(IC50), with units of molar for IC50 and therefore log(molar) for pIC50.

MET = MET (Homo sapiens, UniProt P08581); test: Split TEV recruitment assay, MET-NTEV-tcs-GV in PC12 cells; settings: SH2(GRB2)-CTEV adapter, constant HGF stimulus
Description: (§1) Split TEV recruitment assays were run in six replicates per condition in 96-well plates. 50,000 PC12 cells per well were seeded onto poly-L-lysine (PLL)-coated plates. The next day, cells were transfected with assay plasmids using Lipofectamine 2000. For transfection-based assays, no antibiotics were added to the medium. Per 96-well, a receptor-NTEV-tcs-GV fusion plasmid (10 ng), an adapter-CTEV fusion plasmid for either SHC1 (10 ng), SH2(SHC1) (10 ng), SH2(GRB2) (10 ng), SH2(mix) (10 ng), PIK3R1(50 ng), SH2(PIK3R1) (50 ng), or GRB2 (2.5 ng), and an Fluc reporter plasmid (10 ng, Fluc driven by 10x clustered upstream activating sequences coupled to a minimal CMV promoter, 10 × UAS-minCMVp) were used. […] 16 h later (day 4), the medium was removed, and cells were lysed using Passive Lysis Buffer (Promega) and luciferase activity was analysed using a dual luciferase assay (Promega) in a Mithras LB 940 Multimode Microplate Reader (Berthold Technologies). […] Error bars are calculated as standard error of the mean (SEM).
(§2) For split TEV recruitment assays in a dose–response format, the following amendments to the general protocol were made. […] Error bars are calculated as standard error of the mean (SEM).

IGF1R = IGF1R (Homo sapiens, UniProt P08069); test: Split TEV recruitment assay, IGF1R-NTEV-tcs-GV in PC12 cells; settings: SH2(GRB2)-CTEV adapter, constant IGF1 stimulus
Sequence of IGF1R (P08069 31-1367): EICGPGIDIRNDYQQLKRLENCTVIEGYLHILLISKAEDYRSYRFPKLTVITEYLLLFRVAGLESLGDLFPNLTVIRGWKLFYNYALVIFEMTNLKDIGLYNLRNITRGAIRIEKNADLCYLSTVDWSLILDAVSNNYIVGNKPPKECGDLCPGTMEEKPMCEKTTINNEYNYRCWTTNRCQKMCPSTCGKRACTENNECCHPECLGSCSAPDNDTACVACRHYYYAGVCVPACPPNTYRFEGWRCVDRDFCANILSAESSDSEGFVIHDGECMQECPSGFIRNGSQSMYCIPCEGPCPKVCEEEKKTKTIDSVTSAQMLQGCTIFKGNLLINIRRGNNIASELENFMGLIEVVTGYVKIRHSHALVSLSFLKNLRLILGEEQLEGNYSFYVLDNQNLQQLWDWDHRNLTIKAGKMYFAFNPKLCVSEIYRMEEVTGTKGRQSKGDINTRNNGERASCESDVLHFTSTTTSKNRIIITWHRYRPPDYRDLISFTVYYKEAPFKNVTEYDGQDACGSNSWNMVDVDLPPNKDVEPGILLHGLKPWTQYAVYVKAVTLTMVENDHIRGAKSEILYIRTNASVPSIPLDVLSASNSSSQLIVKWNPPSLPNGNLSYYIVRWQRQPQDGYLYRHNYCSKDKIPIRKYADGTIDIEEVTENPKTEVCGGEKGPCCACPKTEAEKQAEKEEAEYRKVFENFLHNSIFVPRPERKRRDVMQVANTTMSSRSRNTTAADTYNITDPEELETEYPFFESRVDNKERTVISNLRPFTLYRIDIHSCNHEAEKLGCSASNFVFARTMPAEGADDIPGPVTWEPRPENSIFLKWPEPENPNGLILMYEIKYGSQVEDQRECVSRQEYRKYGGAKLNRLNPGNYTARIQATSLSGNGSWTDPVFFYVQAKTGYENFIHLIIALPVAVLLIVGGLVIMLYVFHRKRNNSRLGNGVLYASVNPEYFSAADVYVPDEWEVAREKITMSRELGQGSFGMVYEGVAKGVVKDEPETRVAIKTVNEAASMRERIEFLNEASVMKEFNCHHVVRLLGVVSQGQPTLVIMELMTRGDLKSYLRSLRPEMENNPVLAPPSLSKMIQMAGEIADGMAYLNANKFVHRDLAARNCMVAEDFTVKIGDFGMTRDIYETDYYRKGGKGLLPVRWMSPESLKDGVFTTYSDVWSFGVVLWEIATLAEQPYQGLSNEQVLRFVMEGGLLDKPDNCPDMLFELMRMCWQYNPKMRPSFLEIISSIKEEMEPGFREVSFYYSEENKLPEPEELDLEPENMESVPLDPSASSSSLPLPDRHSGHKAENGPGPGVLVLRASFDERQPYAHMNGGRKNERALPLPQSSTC
Description: as §1, §2

ERBB4 [1] = system: ERBB4; parameters: method as in PMID 28743784; settings: split TEV dimerisation assay; cited from earlier work
EGFR [2] = target: EGFR (Homo sapiens, UniProt P00533); test: Split TEV recruitment assay, EGFR-NTEV-tcs-GV in PC12 cells; settings: SH2(GRB2)-CTEV adapter, constant EGF
Sequence of EGFR (Homo sapiens, UniProt P00533) (P00533 25-1210): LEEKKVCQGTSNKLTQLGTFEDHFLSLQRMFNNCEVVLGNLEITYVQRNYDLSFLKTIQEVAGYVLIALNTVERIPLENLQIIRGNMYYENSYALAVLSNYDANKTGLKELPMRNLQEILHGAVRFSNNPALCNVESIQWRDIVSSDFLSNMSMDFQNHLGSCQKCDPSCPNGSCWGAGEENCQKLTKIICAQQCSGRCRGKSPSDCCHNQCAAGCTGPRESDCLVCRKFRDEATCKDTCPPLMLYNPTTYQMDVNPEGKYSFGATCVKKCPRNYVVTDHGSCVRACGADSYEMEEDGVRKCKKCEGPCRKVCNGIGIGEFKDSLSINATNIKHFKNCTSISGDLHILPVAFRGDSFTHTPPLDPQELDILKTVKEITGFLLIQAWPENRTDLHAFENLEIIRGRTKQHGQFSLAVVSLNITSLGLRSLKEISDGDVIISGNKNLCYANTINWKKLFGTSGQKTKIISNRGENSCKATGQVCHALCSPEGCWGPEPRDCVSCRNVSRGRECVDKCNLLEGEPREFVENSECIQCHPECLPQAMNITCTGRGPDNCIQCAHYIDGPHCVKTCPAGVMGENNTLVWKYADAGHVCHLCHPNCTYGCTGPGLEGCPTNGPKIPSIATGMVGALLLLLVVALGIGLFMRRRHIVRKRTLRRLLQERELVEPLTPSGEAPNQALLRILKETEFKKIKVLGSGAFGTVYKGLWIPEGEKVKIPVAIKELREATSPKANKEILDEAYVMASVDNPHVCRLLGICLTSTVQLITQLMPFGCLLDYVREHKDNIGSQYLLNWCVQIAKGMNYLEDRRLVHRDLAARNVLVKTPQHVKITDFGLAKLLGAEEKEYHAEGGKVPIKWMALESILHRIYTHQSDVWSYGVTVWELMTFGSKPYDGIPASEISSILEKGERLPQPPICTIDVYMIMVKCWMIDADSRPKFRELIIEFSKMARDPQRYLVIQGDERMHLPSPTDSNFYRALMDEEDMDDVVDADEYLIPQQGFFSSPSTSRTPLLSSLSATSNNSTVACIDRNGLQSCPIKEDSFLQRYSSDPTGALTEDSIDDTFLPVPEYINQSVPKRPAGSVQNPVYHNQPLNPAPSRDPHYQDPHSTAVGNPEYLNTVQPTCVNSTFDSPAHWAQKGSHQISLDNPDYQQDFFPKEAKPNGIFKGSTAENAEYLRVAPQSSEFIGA
Description: as §1, §2

ERBB4 [3] = target: ERBB4 (Homo sapiens, UniProt Q15303); test: Split TEV recruitment assay, ERBB4-NTEV-tcs-GV in PC12 cells; settings: for Antagonistic effect on ERBB4 activity: SH2(GRB2)-CTEV adapter, PC12 cells, constant EGFld
Sequence of ERBB4 (Homo sapiens, UniProt Q15303) (Q15303 26-1308): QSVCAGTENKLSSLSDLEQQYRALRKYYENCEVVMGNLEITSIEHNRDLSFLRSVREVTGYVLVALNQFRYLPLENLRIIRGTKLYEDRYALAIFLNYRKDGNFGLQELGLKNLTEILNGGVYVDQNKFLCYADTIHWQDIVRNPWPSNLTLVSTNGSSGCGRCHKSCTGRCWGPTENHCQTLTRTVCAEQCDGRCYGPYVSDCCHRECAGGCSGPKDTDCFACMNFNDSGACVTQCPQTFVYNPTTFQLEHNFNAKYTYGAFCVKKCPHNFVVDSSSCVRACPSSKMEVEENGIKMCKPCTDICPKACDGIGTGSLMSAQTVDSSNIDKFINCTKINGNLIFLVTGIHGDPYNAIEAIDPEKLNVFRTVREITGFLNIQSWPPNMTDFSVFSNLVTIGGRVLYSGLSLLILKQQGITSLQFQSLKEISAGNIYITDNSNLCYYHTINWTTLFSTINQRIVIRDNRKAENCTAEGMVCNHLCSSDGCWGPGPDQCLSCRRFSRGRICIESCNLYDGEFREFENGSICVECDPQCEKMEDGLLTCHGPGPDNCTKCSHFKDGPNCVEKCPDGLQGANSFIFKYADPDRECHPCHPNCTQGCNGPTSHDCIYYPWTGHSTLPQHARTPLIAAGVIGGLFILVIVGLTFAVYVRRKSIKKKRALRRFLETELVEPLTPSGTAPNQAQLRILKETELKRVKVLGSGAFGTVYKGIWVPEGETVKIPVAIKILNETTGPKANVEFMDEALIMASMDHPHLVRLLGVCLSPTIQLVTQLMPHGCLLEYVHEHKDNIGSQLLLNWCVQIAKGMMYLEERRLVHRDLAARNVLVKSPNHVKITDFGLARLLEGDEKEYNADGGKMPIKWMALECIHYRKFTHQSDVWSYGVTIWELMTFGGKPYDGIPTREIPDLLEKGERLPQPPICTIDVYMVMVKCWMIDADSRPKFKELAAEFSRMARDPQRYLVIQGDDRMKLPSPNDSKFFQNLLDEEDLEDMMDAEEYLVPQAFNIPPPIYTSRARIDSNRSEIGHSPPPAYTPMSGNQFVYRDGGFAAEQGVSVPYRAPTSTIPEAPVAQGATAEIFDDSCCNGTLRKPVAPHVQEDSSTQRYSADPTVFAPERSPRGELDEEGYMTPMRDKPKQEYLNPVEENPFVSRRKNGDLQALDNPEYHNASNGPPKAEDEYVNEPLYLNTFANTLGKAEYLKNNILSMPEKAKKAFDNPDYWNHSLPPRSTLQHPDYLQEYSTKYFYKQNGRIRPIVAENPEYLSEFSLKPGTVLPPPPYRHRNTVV
Description: Split TEV recruitment assays were run in six replicates per condition in 96-well plates. 50,000 PC12 cells per well were seeded onto poly-L-lysine (PLL)-coated plates. The next day, cells were transfected with assay plasmids using Lipofectamine 2000. For transfection-based assays, no antibiotics were added to the medium. Per 96-well, a receptor-NTEV-tcs-GV fusion plasmid (10 ng), an adapter-CTEV fusion plasmid for either SHC1 (10 ng), SH2(SHC1) (10 ng), SH2(GRB2) (10 ng), SH2(mix) (10 ng), PIK3R1(50 ng), SH2(PIK3R1) (50 ng), or GRB2 (2.5 ng), and an Fluc reporter plasmid (10 ng, Fluc driven by 10x clustered upstream activating sequences coupled to a minimal CMV promoter, 10 × UAS-minCMVp) were used. Additionally, 1 ng of a plasmid constitutively expressing an EYFP that is fused to nuclear localisation sequence (EYFPnuc) driven by a CMV promoter was transfected per 96-well to assess transfection efficiencies (EYFPnuc). In detail, assay plasmids were diluted in 30 µl Opti-MEM (Thermo Fisher Scientific), vortexed, and mixed with 0.2 µl Lipofectamine 2000 per well. The DNA/Lipofectamine/Opti-MEM mix was incubated for 20 min. The medium was removed from the wells and the DNA/Lipofectamine/Opti-MEM mix was added onto the cells. After 2 h of incubation, the maintenance medium without antibiotics was added to the Opti-MEM mix. On day 2, the maintenance medium was replaced by starvation medium. […] 16 h later (day 4), the medium was removed, and cells were lysed using Passive Lysis Buffer (Promega) and luciferase activity was analysed using a dual luciferase assay (Promega) in a Mithras LB 940 Multimode Microplate Reader (Berthold Technologies). […] Error bars are calculated as standard error of the mean (SEM).
as §2

ERBB2/ERBB3 = ERBB2/ERBB3 (Homo sapiens, UniProt P04626+P21860); test: Split TEV recruitment assay, ERBB3-NTEV-tcs-GV with co-transfected ERBB2 in PC12 cells; settings: SH2(GRB2)-CTEV adapter, constant EGFld
Description: as §1, §2

EGFR [4] = settings: Western blotting, cellular lysates, AID 770081; cited from earlier work
EGFR [5] = settings: Biochemical, AID 1204628; cited from earlier work
ERBB2 = settings: Biochemical, AID 1204629; cited from earlier work
ERBB3 = settings: Biochemical, AID 1204629; cited from earlier work
ERBB4 [6] = settings: Biochemical, AID 1204629; cited from earlier work

SMILES	Concentration at which toxic effects occur (constitutive Renilla luciferase readout) (PC12 cells) [µM]	Inhibition of IGF1R activity (IGF1R)	Antagonistic effect on EGFR activity (EGFR [2])	Antagonistic effect on ERBB4 activity (ERBB4 [3])	Antagonistic effect on ERBB2/ERBB3 activity (ERBB2/ERBB3)	further results
CS(=O)(=O)CCNCc1ccc(-c2ccc3ncnc(Nc4ccc(OCc5cccc(F)c5)c(Cl)c4)c3c2)o1 [Lapatinib, lapatinib]	30	did not inhibit	–	–	–	Inhibition of MET activity (MET): did not inhibit
CC(=O)S[C@@H]1CC2=CC(=O)CC[C@]2(C)[C@H]2CC[C@@]3(C)[C@@H](CC[C@@]34CCC(=O)O4)[C@H]12 [Spironolactone, spironolactone]	–	–	inhibited	inhibited	inhibited	Selectivity among ERBB receptors (ERBB4 [1]): selectivity for ERBB4 over EGFR; Selectivity among ERBB receptors (ERBB4 [3]; split TEV recruitment assays, SH2(GRB2) adapter): some selectivity for ERBB4 over EGFR
C=CC(=O)Nc1cccc(Oc2nc(Nc3ccc(N4CCN(C)CC4)cc3OC)ncc2Cl)c1 [WZ4002]	–	–	–	–	–	pIC50 (EGFR [4]): 5.93; pIC50 (EGFR [5]): 7.79; IC50 (nM)/KD (ERBB2): 0.42 nM; pIC50 (ERBB2): 9.37; IC50 (nM)/KD (ERBB3): 0.42 nM; pIC50 (ERBB3): 9.37; pIC50 (ERBB4 [6]): 9.37
C[C@]12CCC(=O)C=C1C=C[C@@H]1[C@@H]2CC[C@@]2(C)[C@H]1CC[C@@]21CCC(=O)O1 [canrenone]	–	–	did not exhibit any antagonistic effects	did not exhibit any antagonistic effects	did not exhibit any antagonistic effects	–
COc1cc2c(Oc3ccc(NC(=O)C4(C(=O)Nc5ccc(F)cc5)CC4)cc3F)ccnc2cc1OCCCN1CCOCC1 [foretinib]	30	–	–	–	–	–
C[C@]1(O)C[C@@H](c2nc(-c3ccc4ccc(-c5ccccc5)nc4c3)c3c(N)nccn32)C1 [linsitinib]	30	efficiently inhibited	–	–	–	–
